Test results published in patent US20230202980A1, “N-(2-Aminophenyl)-Prop-2-Enamide Derivatives, and Uses Thereof in the Treatment of Cancer” (National University of Singapore, priority 2019, published 2023).
pIC50: −log10 of the molar value.

Assays:
[1] = test system: SNU-398 (SALL4 high) cells; assay: SALL4 high/low phenotypic screen (cell viability, CellTiter-Glo), SALL4 high cells; format: cell-based; conditions: for pIC50: Homo sapiens, SNU-398, read-out: IC50 in high SALL4 SNU398 cells; for pIC50 / IC50 in high SALL4 SNU398 cells: SALL4 high/low phenotypic screen, 72 hrs; for fold less potent than the most active compounds: SALL4 high SNU398 cells
Description: (§1) SNU-387 empty vector, Tg:SALL4A, and Tg:SALL4B expressing isogenic cell lines were generated by transducing WT SNU-387 cells with empty vector, SALL4A or SALL4B FUW-Luc-mCh-puro lentiviral constructs^1. Cells were plated in 50 µl of RPMI culture media in 384-well white flat-bottom plates (Coming) and incubated at 37° C. in a humidified atmosphere of 5% CO2 overnight. Cell numbers per well were 1500 for SNU-398, and 750 for SNU-387 and SNU-387 isogenic lines. After overnight incubation, varying concentrations of compounds 1-80 were added to cells with multichannel electronic pipettes (Rainin). Cells were then incubated for 72 hrs at 37° C. in a humidified atmosphere of 5% CO2 before 10 µl of CellTiter-Glo reagent was added to the wells with the MultiFlo Microplate Dispenser (BioTek). Cells were incubated at room temperature for a mininuun of 10 minutes after which luminescence readings were recorded by an Infinite M1000 Microplate Reader (Tecan).
This testing was based on SALL4 high/low phenotypic screen as described herein. IC50 values noted for the compounds/groups above are based on ICso in high SALL4 SNU398 cells.
ALPHA assay measures binding between SALL4 and RBBp4, an inhibitor could block the binding and reflected in low reading of the ALPHA assay. FP assay also measures binding between SALL4 and RBBp4, an inhibitor results in […] reading. Cell-based assays are measuring cell viability with different concentration of compounds. Cell based 1299 refers to cell viability assay using H1299 cells; Cell-based SNU387 refers to cell viability assay using SNU387 cells; Cell based assay-SNU-398 refers to cell viability assay using SNU398 cells; Cell based MDA-MB231 refers to cell viability assay using MDA-MB231 cells.

[2] = Metabolic stability using liver microsomes; format: in vitro ADME; conditions: 1 µM, 3.33 mg/ml liver microsomes, 2.5 mM NADPH
From the text: (§2) Pan-HDAC binding assay measures HDAC inhibitory activity of a compound. Tubulin Polymerisation inhibition assays measure inhibition activity of a compound towards tubulin polymerization. SALL4 protein expression down regulation assay changed to western blot analysis, SALL4 RNA expression down regulation assay changed to real-time PCR assay. Permeability assay measures the (PAMPA) measures permeability of a compound across an artificial membrane. The microsomal stability assay measures rate of disappearance of a test compound over time in liver microsomes. In vivo PK assay measures biodistribution of the test compound in mice.
1 µM of compound 6 was incubated with 3.33 mg/ml liver microsomes and 2.5 mM NADPH for 0, 5, 10, 30 and 60 minutes. The mixture were subjected to LC-MS/MS to measure remaining compound after the incubation.

SALL4 RNA = SALL4 RNA expression down regulation (Q-PCR) in H661 cells; format: cell-based; conditions: 48 hrs
Description: Cells were treated with compound 6 at 1 µM and 2.5 µM. Amounts for other cmpds are shown. Cells were harvested at 48 hrs and the cell lysates were subjected to western blot analysis and Q-PCR analysis for SALL4 protein and RNA level respectively. […] As shown in the lower panel of FIG. 6, using Q-PCR, it was shown that SALL4 RNA level was reduced by Compound 6 in H661 cells.

PAMPA permeability assay = format: in vitro ADME; conditions: 50 µM, pION buffer, 4 hours
From the text: as §2
50 µM of Compound 6 prepared in pION buffer was added to bottom of UV plate. GIT-0 solution was added and the solution was incubated for 4 hours. The plate spectrum was read using spectrophotometer in scanning mode from 200 nm to 500 nm using PAMPA pION software.

[3] = test system: SNU-387 (SALL4 low) cells; assay: SALL4 high/low phenotypic screen (cell viability, CellTiter-Glo), SALL4 low cells; format: cell-based; conditions: Example 1, see FIG. 2
Description: as §1
ALPHA assay measures binding between SALL4 and RBBp4, an inhibitor could block the binding and reflected in low reading of the ALPHA assay. FP assay also measures binding between SALL4 and RBBp4, an inhibitor results in […] reading. Cell-based assays are measuring cell viability with different concentration of compounds. […]

SALL4 1-300 protein = molecular target: T1, SALL4 1-300 protein (Homo sapiens, UniProt Q9UJQ4); assay: Thermal Shift Assay (fluorescence-based binding assay); conditions: SALL4 1-300 with 100 mM compound
T1 sequence (Q9UJQ4 1-300): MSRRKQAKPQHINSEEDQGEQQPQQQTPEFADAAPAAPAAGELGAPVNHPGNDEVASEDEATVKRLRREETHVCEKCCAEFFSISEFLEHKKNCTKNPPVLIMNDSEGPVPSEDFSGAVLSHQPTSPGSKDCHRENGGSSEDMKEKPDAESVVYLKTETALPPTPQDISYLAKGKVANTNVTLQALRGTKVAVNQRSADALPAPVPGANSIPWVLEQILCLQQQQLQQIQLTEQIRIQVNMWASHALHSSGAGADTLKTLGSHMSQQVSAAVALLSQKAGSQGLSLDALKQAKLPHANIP
From the text: In the upper panel of FIG. 7, a fluorescence-based binding assay named Thermal Shift Assay was used to assess the binding of compound 6 to SALL4 1-300 protein based on changes in unfolding transition. […] In the lower panel of FIG. 7, compound 6 binding to SALL4 was accessed by 1H NMR Experiments and Saturation Transfer Difference (STD) using ^15N SALL4 1-300 and Compound 6. The samples were screened using Bruker BioSpin AVANCE II 600 MHz spectrometer equipped with a CPPTCI{ 19F} cryoprobe and SampleJet auto-sampler. Compound 6 weak binding event to SALL4 1-300 was identified based on the increase in transverse relaxation rate (R2) observed in the presence of SALL4 1-300 protein.

SALL4 high tumor = assay: In vivo xenotransplant testing in mice; conditions: treated mice, P<0.05
[4] = Pharmacokinetic study, whole blood concentration by LC-MS/MS; format: in vivo, Swiss albino mice
Description: Compound 6 was dissolved in water containing 3% DMSO and 10% hydroxyl propyl-b-cyclodextrin (EncapsinTM) for the i.v. dose, and in water containing 5% DMSO and 9.5% Encapsin for the oral dose. Blood samples were collected at 0.083, 0.25, 0.5, 1, 2, 4, 6, 8 and 24 hrs. The whole blood concentration was measured by LC-MS/MS. From the oral route, 90% of compound 6 was cleared at 2 hrs. For the intravenous route, 90% of compound 6 was cleared at 4 hrs.

COc1ccc(N)c(NC(=O)/C=C/c2cccnc2Nc2cc(OC)c(OC)c(OC)c2)c1
pIC50 [1]: 6.00 to 6.82

COc1cc(Nc2ncccc2/C=C/C(=O)Nc2cc(C)ccc2N)cc(OC)c1OC
pIC50 [1]: 6.00 to 6.82

COc1cc(Nc2ncccc2/C=C/C(=O)Nc2cc(Cl)c(Cl)cc2N)cc(OC)c1OC
pIC50 [1]: 6.00 to 6.82

COc1ccc(Nc2ncccc2/C=C/C(=O)Nc2cc(C)ccc2N)cc1
pIC50 [1]: ~5.70 | fold less potent than the most active compounds [1]: about 10 fold

COc1ccc(N)c(NC(=O)/C=C/c2cccnc2Nc2ccc(C(F)(F)F)cc2)c1
pIC50 [1]: ~4.60 | fold less potent than the most active compounds [1]: about 100 fold

Nc1ccc(F)cc1NC(=O)c1cccnc1Nc1ccc(F)cc1
IC50 in high SALL4 SNU398 cells [1]: inactive

Nc1ccc(Cl)cc1NC(=O)c1cccnc1Nc1ccc(F)cc1
IC50 in high SALL4 SNU398 cells [1]: inactive

COc1cc(Nc2ncccc2/C=C/C(=O)Nc2ccc(Cl)cc2N)cc(OC)c1OC [Cmpd 6]
status in liver microsome assay (printed: permeability status) [2]: medium | metabolic stability in liver microsomes, %QH ([2]; 0-60 minutes): 45.88 %QH | SALL4 RNA level (Q-PCR) (SALL4 RNA): reduced | permeability in PAMPA assay (PAMPA permeability assay): high | low SALL4 cell inhibition, concentration [3]: high micromolar | melting shift (SALL4 1-300 protein): 4.7 °C | activity in high SALL4 cells ([1]; Example 1, see FIG. 2): sub-micromolar | selectivity between SALL4 low and SALL4 high cells (FIG. 2) ([1]; SALL4 high vs SALL4 low cells): excellent | EC50 / potency (FIG. 2) ([1]; cell-based screening, SALL4 high cells): excellent | xenograft size (SALL4 high tumor): significant (P<0.05) smaller | xenograft weight (SALL4 high tumor): significant (P<0.05) smaller | compound cleared from whole blood ([4]; intravenous 5 mg/kg, at 4 hrs): 90% | compound cleared from whole blood ([4]; oral 15 mg/kg, at 2 hrs): 90%

COc1cc(Nc2ncccc2/C=C/C(=O)Nc2ccc(Cl)cc2N)cc(OC)c1OC [drawing 157]
pIC50 [1]: 6.00 to 6.82
